PubChem BioAssay (NCI)
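Cells were grown in 96-well plates and exposed to each compound for 48 hours at five concentrations; endpoints were interpolated linearly between bracketing concentrations, or set to the highest concentration if not reached. TGI marks complete inhibition of growth.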

Tests used:
Experiment in all cases: NCI tumour cell line growth inhibition, 48 h
786-0 renal = test system: 786-0 renal
A498 renal = test system: A498 renal
A549 NSCLC = test system: A549 NSCLC
ACHN renal = test system: ACHN renal
BT-549 breast = test system: BT-549 breast
CAKI-1 renal = test system: CAKI-1 renal
CCRF-CEM leukemia = test system: CCRF-CEM leukemia
COLO 205 colon = test system: COLO 205 colon
DU-145 prostate = test system: DU-145 prostate
EKVX NSCLC = test system: EKVX NSCLC
HCC-2998 colon = test system: HCC-2998 colon
HCT-116 colon = test system: HCT-116 colon
HCT-15 colon = test system: HCT-15 colon
HL-60(TB) leukemia = test system: HL-60(TB) leukemia
HOP-62 NSCLC = test system: HOP-62 NSCLC
HOP-92 NSCLC = test system: HOP-92 NSCLC
HS 578T breast = test system: HS 578T breast
HT29 colon = test system: HT29 colon
IGROV1 ovarian = test system: IGROV1 ovarian
K-562 leukemia = test system: K-562 leukemia
KM12 colon = test system: KM12 colon
LOX IMVI melanoma = test system: LOX IMVI melanoma
M14 melanoma = test system: M14 melanoma
MCF7 breast = test system: MCF7 breast
MDA-MB-231 breast = test system: MDA-MB-231 breast
MDA-MB-435 = test system: MDA-MB-435
MDA-N = test system: MDA-N
MOLT-4 leukemia = test system: MOLT-4 leukemia
NCI-H226 lung = test system: NCI-H226 lung
NCI-H23 lung = test system: NCI-H23 lung
NCI-H460 lung = test system: NCI-H460 lung
NCI-H522 lung = test system: NCI-H522 lung
NCI/ADR-RES ovarian = test system: NCI/ADR-RES ovarian
OVCAR-3 ovarian = test system: OVCAR-3 ovarian
OVCAR-4 ovarian = test system: OVCAR-4 ovarian
OVCAR-5 ovarian = test system: OVCAR-5 ovarian
OVCAR-8 ovarian = test system: OVCAR-8 ovarian
PC-3 prostate = test system: PC-3 prostate
RPMI-8226 leukemia = test system: RPMI-8226 leukemia
RXF 393 renal = test system: RXF 393 renal
SF-268 CNS = test system: SF-268 CNS
SF-295 CNS = test system: SF-295 CNS
SF-539 CNS = test system: SF-539 CNS
SK-MEL-2 melanoma = test system: SK-MEL-2 melanoma
SK-MEL-28 melanoma = test system: SK-MEL-28 melanoma
SK-MEL-5 melanoma = test system: SK-MEL-5 melanoma
SK-OV-3 ovarian = test system: SK-OV-3 ovarian
SN12C renal = test system: SN12C renal
SNB-19 CNS = test system: SNB-19 CNS
SNB-75 CNS = test system: SNB-75 CNS
SR leukemia = test system: SR leukemia
SW-620 colon = test system: SW-620 colon
T-47D breast = test system: T-47D breast
TK-10 renal = test system: TK-10 renal
U251 CNS = test system: U251 CNS
UACC-257 melanoma = test system: UACC-257 melanoma
UACC-62 melanoma = test system: UACC-62 melanoma
UO-31 renal = test system: UO-31 renal
MALME-3M melanoma = test system: MALME-3M melanoma

`O=CNc1ccc2c(c1)C(=O)c1ccccc1-2` gave a TGI (786-0 renal) greater than 100 µM, a TGI (A498 renal) greater than 100 µM and a TGI (A549 NSCLC) greater than 100 µM. It also gave a TGI (ACHN renal) greater than 100 µM, a TGI (BT-549 breast) greater than 100 µM and a TGI (CAKI-1 renal) greater than 100 µM. For the same compound, the TGI (CCRF-CEM leukemia) was greater than 100 µM, the TGI (COLO 205 colon) was greater than 100 µM and the TGI (DU-145 prostate) was greater than 100 µM. For the same compound, the TGI (EKVX NSCLC) was 43.1 µM, the TGI (HCC-2998 colon) was greater than 100 µM and the TGI (HCT-116 colon) was greater than 100 µM. It also gave a TGI (HCT-15 colon) greater than 100 µM, a TGI (HL-60(TB) leukemia) greater than 100 µM and a TGI (HOP-62 NSCLC) greater than 100 µM. It also gave a TGI (HOP-92 NSCLC) greater than 100 µM, a TGI (HS 578T breast) greater than 100 µM and a TGI (HT29 colon) greater than 100 µM. For the same compound, the TGI (IGROV1 ovarian) was greater than 100 µM, the TGI (K-562 leukemia) was greater than 100 µM and the TGI (KM12 colon) was greater than 100 µM. It also gave a TGI (LOX IMVI melanoma) greater than 100 µM, a TGI (M14 melanoma) greater than 100 µM and a TGI (MCF7 breast) greater than 100 µM. It also gave a TGI (MDA-MB-231 breast) greater than 100 µM, a TGI (MDA-MB-435) greater than 100 µM and a TGI (MDA-N) greater than 100 µM. The TGI (MOLT-4 leukemia) was greater than 100 µM, the TGI (NCI-H226 lung) was greater than 100 µM and the TGI (NCI-H23 lung) was greater than 100 µM. For the same compound, the TGI (NCI-H460 lung) was greater than 100 µM, the TGI (NCI-H522 lung) was greater than 100 µM and the TGI (NCI/ADR-RES ovarian) was greater than 100 µM. For the same compound, the TGI (OVCAR-3 ovarian) was greater than 100 µM, the TGI (OVCAR-4 ovarian) was greater than 100 µM and the TGI (OVCAR-5 ovarian) was greater than 100 µM. It also gave a TGI (OVCAR-8 ovarian) greater than 100 µM, a TGI (PC-3 prostate) greater than 100 µM and a TGI (RPMI-8226 leukemia) greater than 100 µM. The TGI (RXF 393 renal) was greater than 100 µM, the TGI (SF-268 CNS) was greater than 100 µM and the TGI (SF-295 CNS) was greater than 100 µM. It also gave a TGI (SF-539 CNS) greater than 100 µM, a TGI (SK-MEL-2 melanoma) greater than 100 µM and a TGI (SK-MEL-28 melanoma) greater than 100 µM. For the same compound, the TGI (SK-MEL-5 melanoma) was greater than 100 µM, the TGI (SK-OV-3 ovarian) was greater than 100 µM and the TGI (SN12C renal) was greater than 100 µM. For the same compound, the TGI (SNB-19 CNS) was greater than 100 µM, the TGI (SNB-75 CNS) was greater than 100 µM and the TGI (SR leukemia) was greater than 100 µM. For the same compound, the TGI (SW-620 colon) was greater than 100 µM, the TGI (T-47D breast) was greater than 100 µM and the TGI (TK-10 renal) was greater than 100 µM. It also gave a TGI (U251 CNS) greater than 100 µM, a TGI (UACC-257 melanoma) greater than 100 µM and a TGI (UACC-62 melanoma) greater than 100 µM. For the same compound, the TGI (UO-31 renal) was greater than 100 µM.
`O=C(/C=C/c1ccccc1)C[C@@H](O)C[C@@H]1CC=CC(=O)O1` was tested, and the TGI (786-0 renal) was 12 µM, the TGI (A498 renal) was 30.9 µM and the TGI (A549 NSCLC) was 52.2 µM. The TGI (ACHN renal) was 30.5 µM, the TGI (BT-549 breast) was 27.7 µM and the TGI (CAKI-1 renal) was 27.6 µM. It also gave a TGI (CCRF-CEM leukemia) of 5.12 µM, a TGI (COLO 205 colon) of 17.8 µM and a TGI (DU-145 prostate) greater than 60.5 µM. It also gave a TGI (EKVX NSCLC) of 73.1 µM, a TGI (HCC-2998 colon) of 15.7 µM and a TGI (HCT-116 colon) of 6.38 µM. It also gave a TGI (HCT-15 colon) of 25.4 µM, a TGI (HL-60(TB) leukemia) of 5.06 µM and a TGI (HOP-62 NSCLC) of 33.7 µM. For the same compound, the TGI (HOP-92 NSCLC) was 16 µM, the TGI (HS 578T breast) was greater than 87.3 µM and the TGI (HT29 colon) was 16.8 µM. The TGI (IGROV1 ovarian) was 31.2 µM, the TGI (K-562 leukemia) was 7 µM and the TGI (KM12 colon) was 16.5 µM. The TGI (LOX IMVI melanoma) was 7.02 µM, the TGI (M14 melanoma) was 23.5 µM and the TGI (MALME-3M melanoma) was 30.6 µM. For the same compound, the TGI (MCF7 breast) was 11.4 µM, the TGI (MDA-MB-231 breast) was 27.5 µM and the TGI (MDA-MB-435) was 26.6 µM. It also gave a TGI (MDA-N) of 14.3 µM, a TGI (MOLT-4 leukemia) of 12.5 µM and a TGI (NCI-H226 lung) greater than 100 µM. For the same compound, the TGI (NCI-H23 lung) was 28.6 µM, the TGI (NCI-H460 lung) was 39.5 µM and the TGI (NCI-H522 lung) was 6.9 µM. It also gave a TGI (NCI/ADR-RES ovarian) greater than 85.5 µM, a TGI (OVCAR-3 ovarian) of 13.3 µM and a TGI (OVCAR-4 ovarian) of 45.7 µM. The TGI (OVCAR-5 ovarian) was 36.4 µM, the TGI (OVCAR-8 ovarian) was 18.9 µM and the TGI (PC-3 prostate) was 31.8 µM. It also gave a TGI (RPMI-8226 leukemia) greater than 24.5 µM, a TGI (RXF 393 renal) greater than 23 µM and a TGI (SF-268 CNS) of 27.7 µM. It also gave a TGI (SF-295 CNS) of 28 µM, a TGI (SF-539 CNS) of 14.9 µM and a TGI (SK-MEL-2 melanoma) of 33.9 µM. For the same compound, the TGI (SK-MEL-28 melanoma) was 24.9 µM, the TGI (SK-MEL-5 melanoma) was 26.6 µM and the TGI (SK-OV-3 ovarian) was 38.7 µM. The TGI (SN12C renal) was 25.2 µM, the TGI (SNB-19 CNS) was 35.7 µM and the TGI (SNB-75 CNS) was greater than 53.7 µM. It also gave a TGI (SR leukemia) of 11.5 µM, a TGI (SW-620 colon) of 5.53 µM and a TGI (T-47D breast) of 42.2 µM. For the same compound, the TGI (TK-10 renal) was 28.9 µM, the TGI (U251 CNS) was 21.7 µM and the TGI (UACC-257 melanoma) was 31.1 µM. For the same compound, the TGI (UACC-62 melanoma) was 14.5 µM and the TGI (UO-31 renal) was 28.9 µM.
